Results on four compounds are retold here after paper PMC7982521, “Studies on the Changes of Pharmacokinetics Behaviors of Phytochemicals and the Influence on Endogenous Metabolites After the Combination of Radix Bupleuri and Radix Paeoniae Alba Based on Multi-Component Pharmacokinetics and Metabolomics” (Frontiers in Pharmacology, 2021).

The series can be described thus: Multi-component pharmacokinetics in rat plasma after oral administration of RB, RPA or RB-RPA extracts (UPLC-HRMS, non-compartmental analysis). As to conditions: for AUC0-t / AUC0-∞ / Cmax / t1/2 / tmax: rat plasma, mean ± SD, n = 7. It counts as in vivo, Sprague-Dawley rats. The protocol:
(Beijing, China, No. SCXK2018-0011). […] All rats were free to access the water and food until 12 h before the experiment. The animal study was reviewed and approved by the Experimental Animal Ethical Committee of Modern Research Center for Traditional Chinese Medicine, Shanxi University (animal ethic approval number: SXULL2018018), and all experimental procedures were carried out in accordance with the NIH Guide for the Care and Use of Laboratory Animals. After one week of adaptation, twenty-one rats were divided into three groups randomly, with seven rats in each group: 1) RPA group, were oral administration of Radix Paeoniae Alba extract (45 g-herb/kg); 2) RB group, were oral administration of Radix Bupleuri extract (45 g-herb/kg); 3) RB-RPA group, were oral administration of powder mixture of Radix Bupleuri and Radix Paeoniae Alba extracts (containing 45 g-herb/kg Radix Bupleuri and 45 g-herb/kg Radix Paeoniae Alba). […] Each group received intragastric administration with a volume of 10 ml/kg (rat body weight). […] All rats were free to access the water during the experiment. The blood samples at each time point were collected from seven rats. The blood samples were centrifuged at 4,000 rpm for 10 min and frozen at -80°C until analysis. Using a Thermo-Fisher Dionex UltiMate 3000 UHPLC system coupled with a Q Exactive Orbitrap-MS (Thermo-Fisher, United States) and Xcalibur workstation (Thermo-Fisher Scientific Inc.,Waltham, MA, United States) to acquire UPLC-HRMS raw data. Chromatographic separation of herb extracts and plasma samples was performed on an Acquity UPLC HSS T3 column (2.1 mm × 100 mm, 1.8 μm) maintained at 37°C. The flow rate was 0.2 ml/min and the injection volume was 5 μL. […] Mass spectrometry detection conditions were set as follows: the MS data were acquired under positive and negative ionization modes via heated electrospray ionization (HESI) source. […] The Q Exactive Orbitrap-MS has a fast positive and negative ion switching function, which could switch between positive-negative ion modes during the analysis of the same sample. So, we applied the method of switching ion modes in the detection process to quantify all analytes better. […] UPLC/MS/MS calibration and quantitation data were processed with Xcalibur workstation (Thermo-Fisher Scientific Inc., Waltham, MA, United States). For the eight components with standard reference, calculating their concentrations from the standard curves. For the other 30 components without standard reference, their concentrations were analyzed following the regression equations of homologous compounds ([Qiao et al., 2012]): paeoniflorin for P1 and M1 to M3; methylgallate for M4 to M10; saikosaponin […] and […]; saikosaponin […]; saikosaponin […]; saikosaponin B2 for P11 and M25 to […].

[1] abbreviates: oral RB single extract 45 g-herb/kg.
Where [2] appears, read: oral RB-RPA mixed extracts (45 g-herb/kg RB + 45 g-herb/kg RPA).
Where [3] appears, read: oral administration of mixed extracts RB-RPA.
[4] abbreviates: oral administration of single extract RPA.

In general, Cmax refers to the peak of the concentration-time curve. Take `C[C@H]1O[C@@H](O[C@H]2CC[C@@]3(C)[C@@H](CC[C@]4(C)[C@@H]3C=C[C@]35OC[C@@]6(CCC(C)(C)C[C@H]63)[C@H](O)C[C@]54C)[C@]2(C)CO)[C@H](O)[C@@H](O[C@@H]2O[C@H](CO)[C@@H](O)[C@H](O)[C@H]2O)[C@H]1O` [Saikosaponin D]: under setting [1], the AUC0-t amounted to 67.73 ± 18.62 ng·h/mL, the “AUC0-∞” value was 69.92 ± 17.38 ng·h/mL, the Cmax turned out to be 42.84 ± 11.53 ng/mL and the t1/2 turned out to be 2.01 ± 0.34 h. This compound returned a tmax under setting [1] of 0.50 ± 0.16 h. In addition, under setting [2], the AUC0-t is 99.98 ± 31.48 ng·h/mL, the “AUC0-∞” value is 103.56 ± 33.67 ng·h/mL, the t1/2 amounted to 2.98 ± 0.89 h and the tmax is 0.87 ± 0.38 h. Besides, the “change of t1/2 after combination” value (rat, oral RB-RPA group vs single herbal group) is reported as “longer”.

As to Acetyl-saikosaponin B2, under setting [1], the AUC0-t is 16.86 ± 4.34 ng·h/mL, the “AUC0-∞” value worked out at 19.75 ± 3.88 ng·h/mL, the Cmax was 14.82 ± 4.41 ng/mL and the t1/2 amounted to 3.81 ± 1.29 h. This compound also displayed a tmax under setting [1] of 0.42 ± 0.13 h. Besides, under setting [2], the AUC0-t worked out at 23.18 ± 12.77 ng·h/mL, the “AUC0-∞” value was 26.03 ± 13.58 ng·h/mL, the Cmax worked out at 12.94 ± 6.29 ng/mL and the t1/2 stood at 3.18 ± 1.01 h. Under setting [2], the tmax was found to be 0.42 ± 0.13 h.

For the compound Paeonimetabolin II, under setting [3], the AUC0-t was found to be 9490.91 ± 4705.90 ng·h/mL, the “AUC0-∞” value amounted to 13198.67 ± 4477.34 ng·h/mL, the Cmax came out at 984.50 ± 452.44 ng/mL and the t1/2 is 9.30 ± 2.76 h. The compound also yielded a tmax under setting [3] of 1.17 ± 0.90 h. Also, under setting [4], the AUC0-t was found to be 6694.27 ± 2468.69 ng·h/mL, the “AUC0-∞” value is 8022.12 ± 2764.81 ng·h/mL, the Cmax was 850.12 ± 292.63 ng/mL and the t1/2 worked out at 9.22 ± 2.04 h. The compound also showed a tmax under setting [4] of 1.04 ± 0.37 h. Also, the “change of AUC0-∞ after combination” value (rat, oral RB-RPA group vs single herbal group (RB or RPA)) is given as “significantly increased”.

As for Pyrogallol glucuronide, under setting [3], the AUC0-t turned out to be 643.56 ± 348.44 ng·h/mL, the “AUC0-∞” value is 825.47 ± 393.90 ng·h/mL, the Cmax turned out to be 47.97 ± 13.98 ng/mL and the t1/2 was 10.49 ± 2.78 h. Under setting [3], the tmax was 2.92 ± 1.43 h. Under setting [4], the AUC0-t amounted to 262.73 ± 101.68 ng·h/mL, the “AUC0-∞” value turned out to be 336.41 ± 159.76 ng·h/mL, the Cmax was 34.21 ± 4.94 ng/mL and the t1/2 was 6.16 ± 2.02 h. This compound also came in with a tmax under setting [4] of 2.67 ± 1.85 h. Where the note is “rat, oral RB-RPA vs RPA alone”, the “AUC0-∞ after combination relative to RPA alone” value turned out to be 245.38%, the “Cmax after combination relative to RPA alone” value came to 140.22% and the “t1/2 after combination relative to RPA alone” value was 170.29%.
